This note sets out measurements from the NIST ThermoML archive (doi:10.1016/j.tca.2014.03.030).

Series [1] is described as follows: Molar enthalpy of transition or fusion.
The conditions of series [2]: DTA.

± gives the expanded uncertainty stated by the source.

Regarding `CCCCCCCCCCCCCC(=O)NCCc1ccc(O)cc1` [N-[2-(4-hydroxyphenyl)ethyl]tetradecanamide], the “Molar enthalpy of transition or fusion” value in series [1] (Crystal 1) came out at 10.4 ± 0.574 kcal/mol. Also, the Normal melting temperature in series [2] (Crystal 1) stood at 98.1 ± 2.1 °C.

In the case of `CCCCCCCCCCCC(=O)NCCc1ccc(O)cc1` [N-[2-(4-hydroxyphenyl)ethyl]dodecanamide], in series [1] (Crystal), the “Molar enthalpy of transition or fusion” value is 6.69 ± 0.382 kcal/mol. For the same compound, in series [2] (Crystal), the Normal melting temperature came to 91.39 ± 2.1 °C.

For the compound `CCCCCCCCCCCCCCCC(=O)NCCc1ccc(O)cc1` [N-[2-(4-hydroxyphenyl)ethyl]hexadecanamide], the “Molar enthalpy of transition or fusion” value in series [1] (Crystal 1) is 11.8 ± 0.645 kcal/mol. Also, the Normal melting temperature in series [2] (Crystal 1) came to 103.76 ± 2.1 °C.

`CCCCCCCCCC(=O)NCCc1ccc(O)cc1` [N-[2-(4-hydroxyphenyl)ethyl]decanamide]: the “Molar enthalpy of transition or fusion” value in series [1] (Crystal) was determined as 5.08 ± 0.311 kcal/mol. For the same compound, the Normal melting temperature in series [2] (Crystal) worked out at 81.47 ± 2.1 °C.
